In brackets after ≈: the same amount, converted by molar mass. Several values for one entry are separate records, joined by “and”; a condition that tells them apart may be missing. Equal entries are not always repeated. Where two headings read alike, the source gives them in different places.
Experiments:
[1] = tested on: Clostridium difficile (CD) strains; test: microbe, parasite or virus in culture; format: cell-based
Bacteroides Strains = test: MIC by microdilution in Brucella broth against Bacteroides strains; format: cell-based, Bacteroides spp.
Enterococci faecium = test: MIC by microdilution in Mueller-Hinton broth against Enterococci faecium strains; format: cell-based, Enterococcus faecium; conditions: Enterococcus faecium, Mueller-Hinton broth, read-out: MIC
Enterococcus faecalis = test: MIC by microdilution in Mueller-Hinton broth against Enterococcus faecalis strains; format: cell-based; conditions: Enterococcus faecalis
Escherichia coli strains = test: MIC by microdilution in Mueller-Hinton broth against Escherichia coli strains; format: cell-based; conditions: for MIC: Escherichia coli, Mueller-Hinton broth, read-out: MIC
[2] = tested on: Staphylococcus aureus strains; test: MIC by microdilution in Mueller-Hinton broth against Staphylococcus aureus strains; format: cell-based; conditions: Staphylococcus aureus

`O=C1C(NC2CCCCCCC2)=CC(=O)c2ncccc21` [AZQ, 6-(cyclooctylamino)-5,8-quinolinequinone] gave an MIC Range [1] of 0.25 to 1 mg/L, an MIC90 ([1]; Clostridioides difficile) of 1 mg/L (≈ 3.52 µM) and an MIC (Bacteroides Strains; B. caccae HM728, read-out: MIC) of 2 mg/L (≈ 7.03 µM). It also gave an MIC (Bacteroides Strains; B. eggerthii HM210, read-out: MIC) of 2 mg/L (≈ 7.03 µM), an MIC (Bacteroides Strains; B. fragilis HM709, read-out: MIC) of 2 mg/L (≈ 7.03 µM) and an MIC (Bacteroides Strains; B. fragilis HM710, read-out: MIC) of 2 mg/L (≈ 7.03 µM). It also gave an MIC (Bacteroides Strains; B. fragilis HM714, read-out: MIC) of 2 mg/L (≈ 7.03 µM), an MIC (Bacteroides Strains; B. ovatus HM222, read-out: MIC) of 1 mg/L (≈ 3.52 µM) and an MIC (Bacteroides Strains; B. stercoris HM1036, read-out: MIC) of 2 mg/L (≈ 7.03 µM). It also gave an MIC (Bacteroides Strains; Bacteroides, B. spp. HM19) of 4 mg/L (≈ 14.1 µM), an MIC (Bacteroides Strains; Bacteroides, B. spp. HM23, read-out: MIC) of 2 mg/L (≈ 7.03 µM) and an MIC (Bacteroides Strains; Bacteroides, B. spp. HM27) of 1 mg/L (≈ 3.52 µM). It also gave an MIC (Bacteroides Strains; Bacteroides, B. spp. HM58) of 4 mg/L (≈ 14.1 µM), an MIC (Enterococci faecium; E. faecium NR 31903) of over 32 mg/L and an MIC (Enterococci faecium; E. faecium NR 31909) of 32 mg/L (≈ 113 µM). The MIC (Enterococci faecium; E. faecium NR 31912) was 32 mg/L (≈ 113 µM), the MIC (Enterococci faecium; E. faecium NR 31915) was over 32 mg/L and the MIC (Enterococci faecium; E. faecium NR 31916) was 16 mg/L (≈ 56.3 µM). For the same compound, the MIC (Enterococcus faecalis; E. faecalis NR 31884, read-out: MIC) was 32 mg/L (≈ 113 µM), the MIC (Enterococcus faecalis; E. faecalis NR 31885, read-out: MIC) was 32 mg/L (≈ 113 µM) and the MIC (Enterococcus faecalis; E. faecalis NR 31886, read-out: MIC) was 32 mg/L (≈ 113 µM). For the same compound, the MIC (Enterococcus faecalis; E. faecalis NR 31887, read-out: MIC) was 16 mg/L (≈ 56.3 µM), the MIC (Enterococcus faecalis; E. faecalis NR 31888, read-out: MIC) was 32 mg/L (≈ 113 µM) and the “activity against E. coli (in words)” value (Escherichia coli strains) was “no activity”. It also gave an MIC (Escherichia coli strains; E. coli NR 6) of over 32 mg/L, an MIC (Escherichia coli strains; E. coli NR 8) of over 32 mg/L and an MIC (Escherichia coli strains; E. coli NR 96) of over 32 mg/L. For the same compound, the MIC (Escherichia coli strains; E. coli NR 104) was over 32 mg/L, the MIC (Escherichia coli strains; E. coli NR 17626) was over 32 mg/L and the MIC (Escherichia coli strains; E. coli NR 17627) was over 32 mg/L. It also gave an MIC (Escherichia coli strains; E. coli NR 17633) of over 32 mg/L, an MIC (Escherichia coli strains; E. coli NR 17647) of over 32 mg/L and an MIC (Escherichia coli strains; E. coli NR 17650) of over 32 mg/L. The MIC (Escherichia coli strains; E. coli NR 17661) was over 32 mg/L, the MIC ([2]; S. aureus NR 10129, read-out: MIC) was 32 mg/L (≈ 113 µM) and the MIC ([2]; S. aureus NR 10186, read-out: MIC) was 16 mg/L (≈ 56.3 µM). For the same compound, the MIC ([2]; S. aureus NR 10187, read-out: MIC) was over 32 mg/L, the MIC ([2]; S. aureus NR 10188, read-out: MIC) was 32 mg/L (≈ 113 µM) and the MIC ([2]; S. aureus NR 10189, read-out: MIC) was 16 mg/L (≈ 56.3 µM). The MIC ([2]; S. aureus NR 10191, read-out: MIC) was 8 mg/L (≈ 28.1 µM), the MIC ([2]; S. aureus NR 10192, read-out: MIC) was 32 mg/L (≈ 113 µM) and the MIC ([2]; S. aureus NR 10193, read-out: MIC) was 16 mg/L (≈ 56.3 µM). For the same compound, the MIC ([2]; S. aureus NR 10194, read-out: MIC) was 16 mg/L (≈ 56.3 µM) and the MIC ([2]; S. aureus NR 10198, read-out: MIC) was 16 mg/L (≈ 56.3 µM).

`CC1(C)CC(N=c2cc3n(-c4ccc(Cl)c(Cl)c4)c4ccccc4nc-3cc2Nc2ccc(Cl)c(Cl)c2)CC(C)(C)N1` [B4100] was tested, and the MIC [1] was 0.25 mg/L and 0.125 mg/L.

Reference: patent US9849130B2 (KamTek, Inc., priority 2014, dated 2017)
